Read-outs that look alike come from different tables or passages of the source. Blank lines part the entries; values can stand above or below the substance they belong to. Ends that are not written are not given here.
How the values were obtained:
SFPQ = test: Coimmunoprecipitation of endogenous SFPQ from DRG lysate, Western blot; assay type: binding, rat; conditions: DRG sensory neuron lysate
KLC1 TPR1-6 = conditions: cited from earlier work
[1] = biological target: KLC1 TPR1-6 fragment (KLC1: 205-501) (Homo sapiens, UniProt Q07866); test: ITC binding of SFPQ peptides to KLC1
Sequence of KLC1 TPR1-6 fragment (KLC1: 205-501) (Q07866 205-501): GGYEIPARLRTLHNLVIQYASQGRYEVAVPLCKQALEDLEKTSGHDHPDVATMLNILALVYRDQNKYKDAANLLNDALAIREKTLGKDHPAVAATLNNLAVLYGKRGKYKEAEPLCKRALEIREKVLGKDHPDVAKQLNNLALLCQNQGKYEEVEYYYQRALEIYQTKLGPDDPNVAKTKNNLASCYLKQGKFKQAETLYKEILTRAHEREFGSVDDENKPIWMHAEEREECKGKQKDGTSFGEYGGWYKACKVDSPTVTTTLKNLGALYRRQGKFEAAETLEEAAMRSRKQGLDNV

Substance: KIF3A: kinesin transporting RNA granules in neurons
coimmunoprecipitation with SFPQ (in words) (SFPQ): none of these kinesins significantly coimmunoprecipitates with SFPQ

Substance: EYTCPTEDIYLE [JIP1: EYTCPTEDIYLE]
Kd (KLC1 TPR1-6; KLC1: 228-495, ref Zhu et al., 2012): 9.4 ± 5.85 µM

Substance: ESEMEDAYHEHQANLLR [WT SFPQ peptide]
Kd [1]: 3.83 ± 2.31 µM

binding to KLC1 (in words) ([1]; ITC, 25°C, pH 7.5): did not bind to KLC1
ΔS ([1]; ITC, 20 mM Hepes (pH 7.5), 150 mM NaCl, 0.5 mM TCEP, 2% DMSO, 25°C): No binding
ΔH ([1]; ITC, 20 mM Hepes (pH 7.5), 150 mM NaCl, 0.5 mM TCEP, 2% DMSO, 25°C, single-site model): No binding
Substance: ESEMEDAAHEHQANLLR [SFPQ^Y527A peptide]

Substance: TCPTEDIYLE [JIP1: TCPTEDIYLE]
Kd (KLC1 TPR1-6; KLC1: 205-502, ref Nguyen et al., 2018): 5 ± 0.5 µM

Substance: KIF1A: axonal transport motor protein in DRGs
coimmunoprecipitation with SFPQ (in words) (SFPQ): none of these kinesins significantly coimmunoprecipitates with SFPQ

Reference: PMC7721913 (The Journal of Cell Biology, 2020)
